# Data from patent US20120172302A1, “COMPOSITION FOR THE TREATMENT OF BENIGN PROSTATE HYPERPLASIA” (priority 2009, published 2012).
# Square brackets hold non-standard residues; d marks the D form. Peptide text beside a SMILES is read from it. * marks the point of attachment. dPhe(4-NHCONH2) = NC(=O)Nc1ccc(C[C@@H](N)C(=O)O)cc1; Dihydroorotyl(S) = O=C1C[C@@H](C(=O)*)NC(=O)N1; dPhe(4-Cl) = N[C@H](Cc1ccc(Cl)cc1)C(=O)O; Phe(4-NH2) = Nc1ccc(C[C@H](N)C(=O)O)cc1; d2Nal = N[C@H](Cc1ccc2ccccc2c1)C(=O)O; Lys(iPr) = CC(C)NCCCC[C@H](N)C(=O)O; d3Pal = N[C@H](Cc1cccnc1)C(=O)O
# What was measured:
# Type in all cases: in vivo, men
# [1] = system: patients with BPH; assay: Peak (maximal) urinary flow by flowmetry, clinical trial; conditions: for Mean maximal urinary flow: baseline
# Description: (§1) 2] Efficacy Endpoints—the measured Peak Urinary Flow, Post-void Residual Volume, and Prostate Volume.
# Peak urinary flow was determined by flowmetry using the Uropower device (Wiest, World of Medicine AG, Germany). The device fulfilled the International Continence Society standards for maximum urinary flow. The measurement of urinary flow was done in sitting position.
# The Qmax is the maximal urinary flow rate. It is the traditional parameter used in BPH trials and is a good indicator of degree of bladder outlet obstruction (BOO).
# [2] = system: patients with BPH; assay: Post-void residual volume by transabdominal ultrasound, clinical trial; conditions: for Mean post-void residual volume: all treatment groups
# Description: as §1
# The Post-void Residual Volume (PVR) was evaluated by transabdominal ultrasound. The urine bladder was sonicated from two directions perpendicular to one another resulting in three cursor positions set by the urologist. The volume was calculated automatically. The investigations were performed by urologists by methods known in the art.
# [3] = system: testosterone; assay: Serum testosterone concentration-time profile (LC-MS/MS), clinical trial; conditions: for Mean time to second return of testosterone to baseline interval (after the second administration): only hypothetical (calculated, not measured)
# [4] = Day 42, all groups, patients violating the maximal uroflow inclusion criterion excluded
# [5] = 16+16 mg group, after the first administration
# [6] = 16+16 mg group, after the second administration
# [7] = 32+32 mg group, after the first administration
# [8] = 32+32 mg group, after the second administration
# [9] = first dose of the 32+32 mg group combined with the single dose 32 mg data
compound,measurement,setting,value
"CC(=O)N[C@H](Cc1ccc2ccccc2c1)C(=O)N[C@H](Cc1ccc(Cl)cc1)C(=O)N[C@H](Cc1cccnc1)C(=O)N[C@@H](CO)C(=O)N[C@@H](Cc1ccc(NC(=O)[C@@H]2CC(=O)NC(=O)N2)cc1)C(=O)N[C@H](Cc1ccc(NC(N)=O)cc1)C(=O)N[C@@H](CC(C)C)C(=O)N[C@@H](CCCCNC(C)C)C(=O)N1CCC[C@H]1C(=O)N[C@H](C)C(N)=O [Degarelix, D-Alaninamide, N-acetyl-3-(2-naphthalenyl)-D-alanyl-4-chloro-D-phenylalanyl-3-(3-pyridinyl)-D-alanyl-L-seryl-4-[[[(4S)-hexahydro-2,6-dioxo-4-pyrimidinyl]carbonyl]amino]-L-phenylalanyl-4-[(aminocarbonyl)amino]-D-phenylalanyl-L leucyl-N6-(1-methylethyl)-L-lysyl-L-prolyl] (Ac-[d2Nal][dPhe(4-Cl)][d3Pal]S[Phe(4-NH2)](Dihydroorotyl(S))[dPhe(4-NHCONH2)]L[Lys(iPr)]P[dA]-NH2)",Number of patients with maximal urinary flow decreased vs baseline,"[1]; Day 42, all groups",25 patients
same,Number of patients with maximal urinary flow increased vs baseline,"[1]; Day 42, all groups",24 patients
same,Number of patients with maximal urinary flow unchanged vs baseline,"[1]; Day 42, all groups",1 patient
same,Number of patients with decreased uroflow,[1]; [4],17
same,Number of patients with increased uroflow,[1]; [4],20
same,Mean maximal urinary flow,[1]; 32 mg group,11.7 mL/s
same,Mean maximal urinary flow,[1]; 64 mg group,9.1 mL/s
same,Mean maximal urinary flow,[1]; 16+16 mg group,10.0 mL/s
same,Mean maximal urinary flow,[1]; 32+32 mg group,9.7 mL/s
same,Mean post-void residual volume,[2]; Day 14,decreased
same,Number of patients with post-void residual volume decreased vs baseline,"[2]; Day 42, all groups",33 patients
same,Number of patients with post-void residual volume increased vs baseline,"[2]; Day 42, all groups",17 patients
same,Mean post-void residual volume,[2]; Day 42,lower than the baseline value
same,Mean minimal value of testosterone (Cnadir),[3]; 32 mg group,0.9 ng/mL
same,Mean time for first return of testosterone to baseline interval after the first administration,[3]; 32 mg group,9.1 (SD=5.2) days
same,Mean time of testosterone Cnadir (tnadir),[3]; 32 mg group,1.3 days
same,Number of patients with testosterone below the castration level 0.5 ng/mL at one or more time-points,[3]; 32 mg group,3 patients
same,Percentage of patients with testosterone below the castration level 0.5 ng/mL at one or more time-points,[3]; 32 mg group,25%
same,Testosterone greatest change from baseline,[3]; 32 mg group,-4.2 ng/mL
same,Lowest mean testosterone level,"[3]; 32 mg group, on Day 1",0.9 ng/mL
same,Mean area of testosterone concentrations below 0.5 ng/mL,"[3]; 32 mg group, range 0.0-0.1",0.0 ng·days/mL
same,Mean minimal value of testosterone (Cnadir),[3]; 64 mg group,0.4 ng/mL
same,Mean time of testosterone Cnadir (tnadir),[3]; 64 mg group,8.8 days
same,Number of patients with testosterone below the castration level 0.5 ng/mL at one or more time-points,[3]; 64 mg group,9 patients
same,Percentage of patients with testosterone below the castration level 0.5 ng/mL at one or more time-points,[3]; 64 mg group,69%
same,Testosterone greatest change from baseline,[3]; 64 mg group,-4.7 ng/mL
same,Number of patients still below testosterone 0.5 ng/mL on Day 42,"[3]; 64 mg group, of the 8 patients with testosterone <=0.5 ng/mL",Five
same,Lowest mean testosterone level,"[3]; 64 mg group, on Day 1",0.4 ng/mL
same,Mean area of testosterone concentrations below 0.5 ng/mL,"[3]; 64 mg group, range 0.0-15.2",4.4 ng·days/mL
same,Time for testosterone level to recover above 0.5 ng/mL,"[3]; 64 mg group, the other three of 8 patients",≤ 5 days
same,Duration of castration (testosterone below 0.5 ng/mL),"[3]; 16+16 mg administration, the 2 castrated patients",less than 2 days
same,Mean time for first return of testosterone to baseline interval after the first administration,[3]; 16+16 mg group,6.1 (SD=2.8) days
same,Number of patients with testosterone below the castration level 0.5 ng/mL at one or more time-points,[3]; 16+16 mg group,2 patients
same,Percentage of patients with testosterone below the castration level 0.5 ng/mL at one or more time-points,[3]; 16+16 mg group,15%
same,Testosterone greatest change from baseline,[3]; 16+16 mg group,-4.0 ng/mL
same,Mean minimal value of testosterone (Cnadir),[3]; [5],1.4 ng/mL
same,Mean time of testosterone Cnadir (tnadir),[3]; [5],1.1 days
same,Mean minimal value of testosterone (Cnadir),[3]; [6],2.0 ng/mL
same,Mean time of testosterone Cnadir (tnadir),[3]; [6],4.0 days
same,Lowest mean testosterone level,"[3]; 16+16 mg group, on Day 1",1.4 ng/mL
same,Mean time to second return of testosterone to baseline interval (after the second administration),[3]; 16+16 mg group,19.5 (SD=33.9) days
same,Mean area of testosterone concentrations below 0.5 ng/mL,"[3]; 16+16 mg group, range 0.0-0.0",0.0 ng·days/mL
same,Time for testosterone level to recover above 0.5 ng/mL,"[3]; 16+16 and 32 mg groups, 4 of the 5 patients",≤ 2 days
same,Time for testosterone level to recover above 0.5 ng/mL,"[3]; 16+16 and 32 mg groups, the remaining patient of 5",≤ 4 days
same,Mean time for first return of testosterone to baseline interval after the first administration,[3]; 32+32 mg group,9.1 (SD=2.6) days
same,Number of patients not suppressed below 0.5 ng/mL after the first administration but reaching this level after the second injection,[3]; 32+32 mg group,Five
same,Number of patients with testosterone below the castration level 0.5 ng/mL at one or more time-points,[3]; 32+32 mg group,9 patients
same,Number of subjects that had not regained testosterone levels >0.5 ng/mL at Day 42,[3]; 32+32 mg group,Three
same,Percentage of patients with testosterone below the castration level 0.5 ng/mL at one or more time-points,[3]; 32+32 mg group,75%
same,Testosterone greatest change from baseline,[3]; 32+32 mg group,-4.1 ng/mL
same,Time for testosterone level to recover above 0.5 ng/mL,"[3]; 32+32 mg group, after first administration, 3 of 4 patients",≤ 2 days
same,Mean minimal value of testosterone (Cnadir),[3]; [7],0.6 ng/mL
same,Mean time of testosterone Cnadir (tnadir),[3]; [7],3.2 days
same,Mean minimal value of testosterone (Cnadir),[3]; [8],0.4 ng/mL
same,Mean time of testosterone Cnadir (tnadir),[3]; [8],4.3 days
same,Lowest mean testosterone level,"[3]; 32+32 mg group, after the second administration, on Day 17",0.4 ng/mL
same,Number of patients with testosterone below 0.5 ng/mL after the first degarelix administration,"[3]; 32+32 mg group, of the 9 patients with testosterone <=0.5 ng/mL",Four
same,Mean time to second return of testosterone to baseline interval (after the second administration),[3]; 32+32 mg group,64.2 (SD=83.5) days
same,Mean area of testosterone concentrations below 0.5 ng/mL,"[3]; 32+32 mg group, range 0.0-15.3",2.8 ng·days/mL
same,Mean testosterone level,"[3]; Day 42, 32 mg group",5.3 ng/mL
same,Mean testosterone level,"[3]; Day 42, 64 mg group",3.0 ng/mL
same,Mean testosterone level,"[3]; Day 42, 16+16 mg group",4.5 ng/mL
same,Mean testosterone level,"[3]; Day 42, 32+32 mg group",2.7 ng/mL
same,Number of patients with testosterone below the castration level 0.5 ng/mL at one or more time-points,"[3]; all groups, of the 50 patients, up to Day 42",22 patients
same,Mean testosterone level,"[3]; baseline, 32 mg group",5.2 ng/mL
same,Mean testosterone level,"[3]; baseline, 64 mg group",5.2 ng/mL
same,Mean testosterone level,"[3]; baseline, 16+16 mg group",5.5 ng/mL
same,Mean testosterone level,"[3]; baseline, 32+32 mg group",4.5 ng/mL
same,Duration of castration (testosterone below 0.5 ng/mL),"[3]; first dose of the 32+32 mg group combined with single dose 32 mg, the 8 castrated patients, generally",2 to 4 days
same,Number of patients castrated (testosterone below 0.5 ng/mL),[3]; [9],8 patients
same,Percentage of patients castrated (testosterone below 0.5 ng/mL),[3]; [9],33%
same,"Testosterone area below and time to return to the baseline interval, total 64 mg vs total 32 mg",[3]; groups given a total of 64 mg degarelix compared to the total dose 32 mg,more than 2 fold
